The text below walks through data of US12685312B2, “Sulfonamide apyrase inhibitors” (Texas Crop Science, Inc., priority 2022, dated 2026).

The subject of the test is apyrase. The test is described as follows: Screen for apyrase inhibitors (Method 1, in vitro phosphate-release absorbance assay). The class given is biochemical. The note with it: inhibitor conc at 1 mM stock, 1 hr room temperature, absorbance 630 nm; rounded average of two assay results. A digest of the protocol:
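Phosphate-release colorimetric assay (Windsor method) in 60 mM Hepes, 3 mM MgCl2, 3 mM CaCl2, 3 mM ATP, pH 6.5, with compound or DMSO control added. Released phosphate developed with ammonium molybdate and ascorbic acid/TCA, then stopped with citrate/acetic acid.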
On to `CSc1ncccc1C(=O)Nc1cccc(S(=O)(=O)N(C)c2ccccc2)c1` [I-743, N-(3-(N-methyl-N-phenylsulfamoyl)phenyl)-2-(methylthio)nicotinamide], for which the “% Inhibition of Apyrase” value is recorded as 49%.
For the molecule `O=C(Nc1ccc(S(=O)(=O)Nc2cccc(C(F)(F)F)c2)cc1)c1cc([N+](=O)[O-])cc([N+](=O)[O-])c1` [I-975, 3,5-dinitro-N-(4-(N-(3-(trifluoromethyl)phenyl)sulfamoyl)phenyl) benzamide], the “% Inhibition of Apyrase” value is recorded as 62%.
For the molecule `COc1ccc(S(=O)(=O)N2CCc3ccccc32)cc1C(=O)Nc1cccc(C)c1` [I-499, 5-(indolin-1-ylsulfonyl)-2-methoxy-N-(m-tolyl)benzamide], the “% Inhibition of Apyrase” value is given as 57%.
To `O=C(Nc1ccc(S(=O)(=O)Nc2ncccn2)cc1)c1cccc(S(=O)(=O)N2CCc3ccccc32)c1` [I-554, 3-(indolin-1-ylsulfonyl)-N-(4-(N-(pyrimidin-2-yl)sulfamoyl)phenyl)benzamide] belongs 52%; to `O=C(c1cccc(S(=O)(=O)Nc2ccc(Br)cc2)c1)N1CCc2sccc2C1` [I-262, N-(4-bromophenyl)-3-(4,5,6,7-tetrahydrothieno[3,2-c]pyridine-5-carbonyl)benzenesulfonamide], 59%; to `COc1ccc2c(c1)CCCN2C(=O)c1cccc(S(=O)(=O)N2CCc3ccccc32)c1` [I-509, (3-(indolin-1-ylsulfonyl)phenyl)(6-methoxy-3,4-dihydroquinolin-1(2H)-yl)methanone], 56%.
As to `Cc1ccc(F)cc1NC(=O)c1cccc(S(=O)(=O)N2CCc3ccccc32)c1` [I-517, N-(5-fluoro-2-methylphenyl)-3-(indolin-1-ylsulfonyl)benzamide], the “% Inhibition of Apyrase” value came to 56%.
In the case of `O=C(Nc1ccccc1)c1cccc(NS(=O)(=O)c2cccs2)c1` [I-658, N-phenyl-3-(thiophene-2-sulfonamido)benzamide], the “% Inhibition of Apyrase” value is recorded as 32%.
On to `Cc1ccc(NS(=O)(=O)c2ccc(C(=O)N3c4ccccc4CC3C)cc2)cc1` (centres unmarked) [I-391, 4-(2-methylindoline-1-carbonyl)-N-(p-tolyl)benzenesulfonamide], for which the “% Inhibition of Apyrase” value is recorded as 62%.
Regarding `NC(=O)c1cc(NC(=O)c2cccc(NS(=O)(=O)c3ccc4c(c3)OCCO4)c2)ccc1Cl` [I-325, N-(3-carbamoyl-4-chlorophenyl)-3-((2,3-dihydrobenzo[b][1,4]dioxine)-6-sulfonamido)benzamide], the “% Inhibition of Apyrase” value is listed as 34%.
The result for `O=C(Nc1cc(Cl)ccc1NS(=O)(=O)c1ccccc1F)c1ccc2c(c1)OCO2` [I-813, N-(5-chloro-2-((2-fluorophenyl)sulfonamido)phenyl)benzo[d][1,3] dioxole-5-carboxamide] reads 44%.
Consider `N#Cc1cccc(NC(=O)c2ccc(NS(=O)(=O)c3ccc(Br)cc3)cc2)c1` [I-928, 4-((4-bromophenyl)sulfonamido)-N-(3-cyanophenyl)benzamide], for which the “% Inhibition of Apyrase” value turned out to be 56%.
The result for `CC(=O)NS(=O)(=O)c1ccc(NC(=O)c2cccc(S(=O)(=O)N3CCc4ccccc43)c2)cc1` [I-608, N-(4-(N-acetylsulfamoyl)phenyl)-3-(indolin-1-ylsulfonyl)benzamide] reads 14%; that for `O=C(Nc1ccccc1)c1ccc(Cl)c(S(=O)(=O)Nc2ccc(Br)cc2)c1` [I-43, 3-(N-(4-bromophenyl)sulfamoyl)-4-chloro-N-phenylbenzamide], 13%; that for `COc1ccc(NS(=O)(=O)c2ccc(NC(=O)c3ccccc3OC(F)F)cc2)cc1OC` [I-996, 2-(difluoromethoxy)-N-(4-(N-(3,4-dimethoxyphenyl)sulfamoyl)phenyl)benzamide], 46%.
To `O=C(Nc1ccc(Br)cc1)c1cccc(S(=O)(=O)Nc2cccc(C(F)(F)F)c2)c1` [I-250, N-(4-bromophenyl)-3-(N-(3-(trifluoromethyl)phenyl)sulfamoyl)benzamide] belongs 63%; to `CN(c1ccccc1)S(=O)(=O)c1ccc(C(=O)N2CCc3ccccc32)cc1` [I-865, 4-(indoline-1-carbonyl)-N-methyl-N-phenylbenzenesulfonamide], 59%.
As for `Cc1nc2cc(NC(=O)c3cccc(S(=O)(=O)N4CCc5ccccc54)c3)ccc2o1` [I-587, 3-(indolin-1-ylsulfonyl)-N-(2-methylbenzo[d]oxazol-5-yl)benzamide], the “% Inhibition of Apyrase” value was 44%.
The result for `O=C(Nc1cccc(S(=O)(=O)Nc2ccc(I)cc2)c1)c1ccccn1` [I-723, N-(3-(N-(4-iodophenyl)sulfamoyl)phenyl)picolinamide] reads 57%; that for `O=C(Nc1cccc(S(=O)(=O)Nc2ccc(Cl)cc2)c1)c1ccsc1` [I-717, N-(3-(N-(4-chlorophenyl)sulfamoyl)phenyl)thiophene-3-carboxamide], 58%; that for `CC(=O)Nc1ccc(NC(=O)c2cccc(S(=O)(=O)N3CCc4ccccc43)c2)cc1` [I-480, N-(4-acetamidophenyl)-3-(indolin-1-ylsulfonyl)benzamide], 58%.
As to `O=C(Nc1cnccn1)c1cccc(NS(=O)(=O)c2ccccc2)c1` [I-670, 3-(phenylsulfonamido)-N-(pyrazin-2-yl)benzamide], the “% Inhibition of Apyrase” value is recorded as 6%.
To `Cc1ccc(NC(=O)c2cccc(S(=O)(=O)Nc3ccc(Br)cc3)c2)cc1S(=O)(=O)N1CCOCC1` [I-273, 3-(N-(4-bromophenyl)sulfamoyl)-N-(4-methyl-3-(morpholinosulfonyl)phenyl)benzamide] belongs 52%.
The result for `Cc1cccc(NC(=O)c2cccc(S(=O)(=O)Nc3ccc4c(c3)OCO4)c2)c1` [I-270, 3-(N-(benzo[d][1,3]dioxol-5-yl)sulfamoyl)-N-(m-tolyl)benzamide] reads 57%; that for `O=C(Nc1ccccc1NS(=O)(=O)c1cccs1)c1ccc(Cl)cc1F` [I-837, 4-chloro-2-fluoro-N-(2-(thiophene-2-sulfonamido)phenyl)benzamide], 35%.
With `CC1Cc2ccccc2N1C(=O)c1cccc(S(=O)(=O)Nc2ccccc2F)c1` (centres unmarked) [I-533, N-(2-fluorophenyl)-3-(2-methylindoline-1-carbonyl)benzenesulfonamide], the “% Inhibition of Apyrase” value was determined as 54%.
As for `COc1ccc(NC(=O)c2ccccc2NS(=O)(=O)c2cccc(C(F)(F)F)c2)cc1OC` [I-228, N-(3,4-dimethoxyphenyl)-2-((3-(trifluoromethyl)phenyl)sulfonamido)benzamide], the “% Inhibition of Apyrase” value came to 55%.
For `Cn1cc(O)nc1NC(=O)c1cccc(S(=O)(=O)Nc2ccc(Br)cc2)c1` [I-272, 3-(N-(4-bromophenyl)sulfamoyl)-N-(4-hydroxy-1-methyl-1H-imidazol-2-yl)benzamide], the “% Inhibition of Apyrase” value came to 52%.
The result for `O=C(Nc1ccccc1NS(=O)(=O)c1cccs1)c1cccc(Cl)c1` [I-828, 3-chloro-N-(2-(thiophene-2-sulfonamido)phenyl)benzamide] reads 65%; that for `COc1ccc(NC(=O)c2ccc(NS(=O)(=O)c3ccc(F)cc3)cc2)cc1OC` [I-958, N-(3,4-dimethoxyphenyl)-4-((4-fluorophenyl)sulfonamido)benzamide], 19%; that for `Cc1ccc(F)cc1S(=O)(=O)Nc1cccc(C(=O)Nc2cccc(C#N)c2)c1` [I-318, N-(3-cyanophenyl)-3-((5-fluoro-2-methylphenyl)sulfonamido)benzamide], 68%.
As to `Cc1ccc(S(=O)(=O)Nc2ccc(F)cc2)cc1C(=O)N1CCc2ccccc21` [I-543, N-(4-fluorophenyl)-3-(indoline-1-carbonyl)-4-methylbenzenesulfonamide], the “% Inhibition of Apyrase” value was 54%.
The result for `Cc1ccc(C)c(S(=O)(=O)Nc2cccc(C(=O)Nc3cnccn3)c2)c1` [I-669, 3-((2,5-dimethylphenyl)sulfonamido)-N-(pyrazin-2-yl)benzamide] reads 7%; that for `O=C(Nc1ccc(F)c(F)c1)c1cccc(S(=O)(=O)N2CCc3ccccc32)c1` [I-472, N-(3,4-difluorophenyl)-3-(indolin-1-ylsulfonyl)benzamide], 59%.
In the case of `Cc1ccccc1NS(=O)(=O)c1cccc(C(=O)Nc2cccc([N+](=O)[O-])c2)c1` [I-40, N-(3-nitrophenyl)-3-(N-(o-tolyl)sulfamoyl)benzamide], the “% Inhibition of Apyrase” value is reported as 14%.
Take `Cc1cccc(NC(=O)c2ccc(NS(=O)(=O)c3ccc(F)cc3)cc2)c1C` [I-937, N-(2,3-dimethylphenyl)-4-((4-fluorophenyl)sulfonamido)benzamide]: the “% Inhibition of Apyrase” value is recorded as 52%.
On to `Cc1n[nH]c(C)c1CCC(=O)Nc1cccc(NC(=O)c2cccc(S(=O)(=O)Nc3ccc(Br)cc3)c2)c1` [I-1009, 3-(N-(4-bromophenyl)sulfamoyl)-N-(3-(3-(3,5-dimethyl-1H-pyrazol-4-yl)propanamido)phenyl)benzamide], for which the “% Inhibition of Apyrase” value came out at 26%.
To `O=C(Nc1ccc(SC(F)F)cc1)c1ccccc1S(=O)(=O)N1CCCCC1` [I-353, N-(4-((difluoromethyl)thio)phenyl)-2-(piperidin-1-ylsulfonyl)benzamide] belongs 44%; to `COc1ccc(S(=O)(=O)N2CCc3ccccc32)cc1C(=O)Nc1ccc(Br)c(C)c1` [I-471, N-(4-bromo-3-methylphenyl)-5-(indolin-1-ylsulfonyl)-2-methoxybenzamide], 59%; to `CCOc1ccc(NS(=O)(=O)c2cccc(NC(=O)c3cccnc3)c2)cc1Br` [I-751, N-(3-(N-(3-bromo-4-ethoxyphenyl)sulfamoyl)phenyl)nicotinamide], 41%.
Regarding `CN(c1ccccc1)S(=O)(=O)c1cccc(NC(=O)c2ccc(Br)o2)c1` [I-722, 5-bromo-N-(3-(N-methyl-N-phenylsulfamoyl)phenyl)furan-2-carboxamide], the “% Inhibition of Apyrase” value is recorded as 57%.
